Measurements reported in patent US7557134B2, “N-(heteroaryl)-1H-indole-2-carboxamide derivatives and their use as vanilloid TRPV1 receptor ligands” (Sanofi-Aventis, priority 2005, dated 2009).

Tests used:
[1] = molecular target: T1, TRPV1 receptor (Rattus norvegicus, UniProt O35433); assay: Test of inhibition of the current induced with capsaicin on rat DRGs (whole-cell patch-clamp); format: cell-based; conditions: capsaicin response 300 nM, rat DRG neurons
T1 construct: The neurons of the DRG naturally express the TRPV1 receptor; endogenous in cells; host or cells: primary culture of newborn rat dorsal root ganglion neurons
Experimental: Test of Inhibition of the Current Induced with Capsaicin on rat DRGs
• Primary culture of rat dorsal root ganglion (DRG) cells:
The neurons of the DRG naturally express the TRPV1 receptor.
The primary cultures of newborn rat DRGs are prepared using 1-day-old rats. Briefly, after dissection, the ganglions are trypsinized and the cells dissociated by mechanical trituration. The cells are resuspended in an Eagle basal culture medium containing 10% fetal calf serum, 25 mM KCl, 2 mM glutamine, 100 μg/ml gentamicin and 50 ng/ml of NGF, and then deposited on glass slides coated with laminin (0.25×10^6 cells per slide), which are then placed in Corning 12-well dishes. The cells are incubated at 37° C. in a humidified atmosphere containing 5% CO2 and 95% air. Cytosine β-D-arabinoside (1 μM) is added 48 hours after culturing, to prevent the growth of non-neuronal cells. The slides are transferred into experimental chambers for the patch-clamp studies after 7-10 days of culturing.
The measuring chambers (volume 800 μl) containing the cell preparation are placed on the platform of an inverted microscope (Olympus IMT2) equipped with Hoffman optics (Modulation Contrast, New York) and observed at a magnification of 400×. The chambers are continuously gravity-influxed (2.5 ml/min) using a solution distributor accepting 8 inlets and whose sole outlet, consisting of a polyethylene tube (aperture 500 μm), is placed less than 3 mm from the cell under study. The “whole cell” configuration of the patch-clamp technique was used. […] The overall currents (membrane potential set at […]) are recorded with an Axopatch 1 D amplifier (Axon Instruments, Foster city, Calif.), connected to a PC running the Pclamp8 software (Axon Instrument). The current plots are recorded on paper and simultaneously digitized (sampling frequency 15 to 25 Hz) and acquired on the hard drive of the PC.
The application of a 300 nM capsaicin solution induces on the DRG cells (voltage set at −70 mV) an entering cationic current. […] The results are expressed as a percentage of inhibition of the control capsaicin response.

[2] = molecular target: T2, TRPV1 receptors (Mus musculus, UniProt Q704Y3); assay: Test of mouse corneal irritation (capsaicin ocular instillation); format: in vivo; conditions: 1 mg/kg po, pretreatment time t = 1 h, n = 8, 2 μl of 160 μM capsaicin
T2 construct: from tissue; host or cells: living mouse, cornea (capsaicin ocular instillation)
Experimental: Test of Mouse Corneal Irritation
The irritant nature of capsaicin is readily assessed on the cornea since this organ is one of the organs most densely innervated with C fibres. In this context, from preliminary experiments, the application of a very small amount of capsaicin (2 μl at a concentration of 160 μM) to the surface of the cornea of an animal leads to a certain number of stereotypic behavioral traits associated with irritation, which are easy to detect. Among these, the following are noted: blinking of the eye, rubbing of the instilled eye with the ipsilateral front paw, rubbing of the face with both front paws, scratching of the ipsilateral face with the hind paw. […] This aspect is moreover also normal. […]
In practice, the test product is administered orally and, with a delay (pretreatment time: t) that depends on the pharmacokinetic data, the animal receives an ocular instillation of 2 μl of a 160 μM capsaicin solution prepared as indicated above. During a 2-minute observation following the instillation, the number of times the instilled eye is rubbed with the ipsilateral front paw is recorded.
For a given animal, the percentage of protection is calculated as follows: P=100−((number of scratching actions observed/mean number of scratching actions for the group treated with the solvent)×100) […]

T1 sequence (O35433 whole entry): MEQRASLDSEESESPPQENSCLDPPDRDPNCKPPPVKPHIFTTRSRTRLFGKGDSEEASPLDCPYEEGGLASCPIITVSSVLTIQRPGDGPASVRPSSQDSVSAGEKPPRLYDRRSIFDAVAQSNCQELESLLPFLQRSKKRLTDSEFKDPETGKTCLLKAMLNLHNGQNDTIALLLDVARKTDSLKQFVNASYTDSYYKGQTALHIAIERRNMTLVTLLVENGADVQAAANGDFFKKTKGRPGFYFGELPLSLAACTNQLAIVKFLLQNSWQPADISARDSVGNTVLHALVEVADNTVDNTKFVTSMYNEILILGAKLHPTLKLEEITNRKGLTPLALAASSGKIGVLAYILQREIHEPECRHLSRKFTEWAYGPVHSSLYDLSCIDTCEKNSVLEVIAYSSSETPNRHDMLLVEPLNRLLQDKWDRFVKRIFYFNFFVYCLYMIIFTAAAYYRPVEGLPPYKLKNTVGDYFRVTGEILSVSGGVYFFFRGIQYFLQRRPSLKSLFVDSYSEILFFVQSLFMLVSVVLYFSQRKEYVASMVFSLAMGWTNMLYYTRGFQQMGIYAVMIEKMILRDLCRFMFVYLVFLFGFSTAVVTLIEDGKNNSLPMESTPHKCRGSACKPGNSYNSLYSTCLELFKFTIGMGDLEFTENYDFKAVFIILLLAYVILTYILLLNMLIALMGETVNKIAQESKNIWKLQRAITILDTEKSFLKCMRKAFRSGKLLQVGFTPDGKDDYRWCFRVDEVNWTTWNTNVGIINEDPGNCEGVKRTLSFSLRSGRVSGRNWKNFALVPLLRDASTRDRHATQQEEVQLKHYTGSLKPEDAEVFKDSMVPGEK
T2 sequence (Q704Y3 whole entry): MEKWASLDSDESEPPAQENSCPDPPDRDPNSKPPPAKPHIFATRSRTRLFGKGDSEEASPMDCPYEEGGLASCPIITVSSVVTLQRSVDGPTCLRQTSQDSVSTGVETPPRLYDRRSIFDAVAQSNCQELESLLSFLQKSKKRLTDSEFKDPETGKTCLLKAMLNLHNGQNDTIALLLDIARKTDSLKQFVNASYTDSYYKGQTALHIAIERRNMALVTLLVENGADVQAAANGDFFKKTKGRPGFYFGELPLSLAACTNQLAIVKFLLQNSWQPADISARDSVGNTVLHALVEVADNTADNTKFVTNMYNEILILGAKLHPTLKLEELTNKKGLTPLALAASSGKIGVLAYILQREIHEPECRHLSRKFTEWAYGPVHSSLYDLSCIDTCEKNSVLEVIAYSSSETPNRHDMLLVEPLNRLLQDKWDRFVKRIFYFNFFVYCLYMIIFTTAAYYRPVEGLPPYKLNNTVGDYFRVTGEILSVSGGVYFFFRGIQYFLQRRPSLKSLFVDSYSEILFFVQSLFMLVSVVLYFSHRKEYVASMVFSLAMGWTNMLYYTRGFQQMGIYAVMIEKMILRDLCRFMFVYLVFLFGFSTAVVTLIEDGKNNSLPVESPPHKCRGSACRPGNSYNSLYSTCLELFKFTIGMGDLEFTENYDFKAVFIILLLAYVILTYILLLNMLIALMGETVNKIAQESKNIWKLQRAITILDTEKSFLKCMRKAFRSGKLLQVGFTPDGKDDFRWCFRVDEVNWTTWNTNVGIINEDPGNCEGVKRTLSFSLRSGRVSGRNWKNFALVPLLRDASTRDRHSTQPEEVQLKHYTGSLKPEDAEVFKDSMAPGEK

| Structure (SMILES) | inhibition at 0.01 µM ([1]; DRG neuron, compound 10 nM) | % P (percentage of protection) [2] | % inhibition in DRG patch ([1]; compound 1 nM) |
| --- | --- | --- | --- |
| O=C(Nc1ccc2c(c1)NCCC2)c1cc2cc(F)ccc2n1Cc1cccc(F)c1 [Compound 14, N-(1,2,3,4-tetrahydroquinol-7-yl)-5-fluoro-1-[(3-fluorophenyl)methyl]-1H-indole-2-carboxamide] | 38% | 46% - (1 h) |  |
| O=C1CCc2ccc(NC(=O)c3cc4cc(F)ccc4n3Cc3cccc(F)c3)cc2N1 [Compound 20, N-(1H-2-oxo-3,4-dihydroquinol-7-yl)-5-fluoro-1-[(3-fluorophenyl)methyl]-1H-indole-2-carboxamide] |  | 26% - (1 h) | 45% (1 nM) |
